Reference: patent US7323044B1, “Biocidal compositions” (Troy Corporation, priority 2007, dated 2008)

Experiments:
[1] = Amount of castor oil based co-solvent required to keep OBPA in solution with plasticizer; format: physicochemical; settings: with commercial plasticizers (e.g., diisodecyl phthalate); about −13° C. to about 30° C.
Experimental: As a general rule, OBPA solutions which are transported or stored at outdoor conditions, without the benefit of dedicated heating or cooling equipment, may be exposed to temperatures in the range of about −13° C. to about 30° C. […] For OBPA solutions which will be transported or stored at outdoor conditions, we prefer that the weight ratio of OBPA to the solvent is about 0.12 or less in the present invention, more preferably in the range of about 0.083 to about 0.12, and most preferably about 0.10. For OBPA solutions which will be temperature-controlled during shipment and storage, the invention can be successfully practiced over a broader range of OBPA to solvent weight ratio.

[2] = background statement; cited from earlier work

c1ccc2c(c1)Oc1ccccc1[As]2O[As]1c2ccccc2Oc2ccccc21 [OBPA, 10,10′-oxybisphenoxarsine]
Castor oil based co-solvent required to keep 1 gram of OBPA in solution [1]: at least 8 grams | Solubility of OBPA in plasticizers currently favored for manufacturing flexible PVC [2]: less than 1 wt %
